Measurements reported in patent publication US20230338391A1, “TREATMENT FOR DEPRESSION” (TAKEDA PHARMACEUTICAL COMPANY LIMITED, priority 2020, published 2023).
Like-named read-outs stand apart in the source and are kept apart here.

Experiment: Phase 1 SRD/multiple-rising dose (MRD, Part 2) plasma PK in healthy subjects
Assay type: in vivo, human
Settings: for CL/F / t1/2z / Cav, ss / AUC / Cmax: mean; for AUC / Cmax / Tmax: both sexes, human, plasma, oral; for Tmax: median, read-out: tmax
Method: The study was designed to assess the safety, tolerability, PK, and PD of COMPOUND A. A total of 88 subjects were enrolled in 6 SRD and 5 SRD/MRD cohorts (n=8 per cohort). The study was composed of 2 parts.
In Part 2 of the study (SRD/MRD cohorts), a single oral tablet dose of COMPOUND A (0.3, 1, 3, 6, or 9 mg) or matching placebo was administered on Day 1 followed by safety, tolerability, PK, and PD assessments. Study drug (at the same dose level) was then administered once daily (QD) for 13 days, on […]. Each cohort of 8 subjects (6 active: 2 placebo) were administered study drug sequentially to ensure adequate safety and tolerability before administering the next dose level. Neither sentinel nor staggered dosing was used for the SRD/MRD cohorts. Subjects were confined in the study unit for 21 days, from Check-in on Day −1 until 72 hours after the last dose of study drug.
For all cohorts in Parts 1 and 2, serial PK blood samples were collected pre- and post-dose on Day 1 to measure plasma concentrations of COMPOUND A and its metabolites. For all SRD/MRD cohorts in Part 2, urine samples were collected pre- and post-dose on Day 1 and post-dose on Day 18 to measure concentrations of COMPOUND A and its metabolites.
For Part 1 of the study, all 36 subjects who received COMPOUND A were included in the PK set. For Part 2 of the study, all 30 subjects who received COMPOUND A were included in the PK set.
Referring now to FIG. 3, mean plasma concentration-time profiles (linear and semilog scales) of COMPOUND A were determined on Day 18 following oral administration of COMPOUND A QD for 13 days.

CC1=CN2CCS(=O)(=O)N=C2C(c2ccc(OC3CCCCC3)cc2)=N1 [COMPOUND A, 9-[4-(Cyclohexyloxy)phenyl]-7-methyl-3,4-dihydropyrazino[2,1-c][1,2,4]thiadiazine 2,2-dioxide]
CL/F (0.3 mg QD cohort, Study Day 1): 2.38 L/h
t1/2z (0.3 mg QD cohort, Study Day 1): 37.1 h
Cav, ss (0.3 mg QD, Study Day 18): 6.27 ng/mL
CL/F (1 mg QD cohort, Study Day 1): 2.35 L/h
t1/2z (1 mg QD cohort, Study Day 1): 42.4 h
Cav, ss (1 mg QD, Study Day 18): 20.9 ng/mL
CL/F (3 mg QD cohort, Study Day 1): 1.81 L/h
t1/2z (3 mg QD cohort, Study Day 1): 52.6 h
Cav, ss (3 mg QD, Study Day 18): 81.1 ng/mL
CL/F (6 mg QD cohort, Study Day 1): 3.25 L/h
t1/2z (6 mg QD cohort, Study Day 1): 36.0 h
Cav, ss (6 mg QD, Study Day 18, n = 5): 122 ng/mL
CL/F (9 mg QD cohort, Study Day 1): 2.17 L/h
t1/2z (9 mg QD cohort, Study Day 1): 49.9 h
Cav, ss (9 mg QD, Study Day 18): 192 ng/mL
AUC (0.3 mg, 0.3 mg QD cohort, Study Day 1, read-out: AUC24): 48 ng·h/mL
Cmax (0.3 mg, 0.3 mg QD cohort, Study Day 1, read-out: Cmax): 2.93 ng/mL
Tmax (0.3 mg, 0.3 mg QD cohort, Study Day 1): 1.25 h
AUC (0.3 mg, 0.3 mg QD, Study Day 6, read-out: AUC24): 51.8 ng·h/mL
Cmax (0.3 mg, 0.3 mg QD, Study Day 6, read-out: Cmax): 3.07 ng/mL
Tmax (0.3 mg, 0.3 mg QD, Study Day 6): 1.5 h
AUC (0.3 mg, 0.3 mg QD, Study Day 18, read-out: AUCτ): 151 ng·h/mL
Cmax (0.3 mg, 0.3 mg QD, Study Day 18, read-out: Cmax, ss): 7.87 ng/mL
Tmax (0.3 mg, 0.3 mg QD, Study Day 18): 2.5 h
AUC (1 mg, 1 mg QD cohort, Study Day 1, read-out: AUC24): 138 ng·h/mL
Cmax (1 mg, 1 mg QD cohort, Study Day 1, read-out: Cmax): 7.82 ng/mL
Tmax (1 mg, 1 mg QD cohort, Study Day 1): 4 h
AUC (1 mg, 1 mg QD, Study Day 6, read-out: AUC24): 162 ng·h/mL
Cmax (1 mg, 1 mg QD, Study Day 6, read-out: Cmax): 10 ng/mL
Tmax (1 mg, 1 mg QD, Study Day 6): 1 h
AUC (1 mg, 1 mg QD, Study Day 18, read-out: AUCτ): 503 ng·h/mL
Cmax (1 mg, 1 mg QD, Study Day 18, read-out: Cmax, ss): 24.9 ng/mL
Tmax (1 mg, 1 mg QD, Study Day 18): 4.5 h
AUC (3 mg, 3 mg QD cohort, Study Day 1, read-out: AUC24): 480 ng·h/mL
Cmax (3 mg, 3 mg QD cohort, Study Day 1, read-out: Cmax): 28.7 ng/mL
Tmax (3 mg, 3 mg QD cohort, Study Day 1): 1.5 h
AUC (3 mg, 3 mg QD, Study Day 6, read-out: AUC24): 594 ng·h/mL
Cmax (3 mg, 3 mg QD, Study Day 6, read-out: Cmax): 34.7 ng/mL
Tmax (3 mg, 3 mg QD, Study Day 6): 1.54 h
AUC (3 mg, 3 mg QD, Study Day 18, read-out: AUCτ): 1950 ng·h/mL
Cmax (3 mg, 3 mg QD, Study Day 18, read-out: Cmax, ss): 100 ng/mL
